Laboratory results: patent publication US11013235B2 (priority 2015, dated 2021)
Like-named read-outs stand apart in the source and are kept apart here.

How the values were obtained:
Type in all cases: in vivo
[1] = tested on: Candidatus 'Liberibacter asiaticus'; conditions: spraying every 15 days, 12 months after treatment, Citrus sinensis with HLB
[2] = tested on: Phytophthora parasitica; assay: Control of Phytophthora parasitica disease in tobacco (Pp-Nt); conditions: 1 μM spraying every 24 hours for one week, water control 91
[3] = tested on: Rhizoctonia solani; assay: Control of Rhizoctonia solani disease in tobacco (Rs-Nt); conditions: 1 μM spraying every 24 hours for one week, water control 87
[4] = tested on: Nocardia sp; assay: Control of Nocardia sp disease in tobacco (N-Nt); conditions: 1 μM spraying every 24 hours for one week, water control 58
Method in brief: (§1)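 Lesion diameter was the measure for Botrytis infection, percentage of leaves showing symptoms for Alternaria, and mortality rate for Nocardia. Compounds at 1 μM were sprayed daily for a week onto already inoculated plants, in groups of fifty, alongside water-treated controls.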

[5] = tested on: Rhizoctonia solani; assay: Control of Rhizoctonia solani disease in tomato (Rs-SI); conditions: 1 μM spraying every 24 hours for one week, water control 96
[6] = tested on: Alternaria solani; assay: Control of Alternaria solani disease in tomato (As-SI); conditions: 1 μM spraying every 24 hours for one week, water control 68
Method in brief: as §1

[7] = tested on: Botrytis cinerea; assay: Control of Botrytis cinerea disease in Arabidopsis (Bc-At); conditions: 1 μM spraying every 24 hours for one week, water control 8.7
Method in brief: as §1

[8] = tested on: Botrytis cinerea; assay: Control of Botrytis cinerea disease in tobacco (Bc-Nt); conditions: 1 μM spraying every 24 hours for one week, water control 6.7
Method in brief: as §1

[9] = tested on: Botrytis cinerea; assay: Control of Botrytis cinerea disease in tomato (Bc-SI); conditions: 1 μM spraying every 24 hours for one week, water control 7.4
Method in brief: as §1

[10] = tested on: Radopholus similis; assay: Nematode control, nodules per plant: Radopholus similis; conditions: 1 μM foliar application every 5 days, evaluation 35 days after, control 45
Method in brief: (§2)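 Read-out: nodule count per plant at final evaluation 35 days after start. Foliar spray of 1 μM compound (ethanol stock diluted in water) repeated every 5 days, ten plants per treatment.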

[11] = tested on: Meloidogyne incognita; assay: Nematode control, nodules per plant: Meloidogyne incognita; conditions: 1 μM foliar application every 5 days, evaluation 35 days after, control 34
Method in brief: as §2

[12] = tested on: Pratylenchus coffeae; assay: Nematode control, nodules per plant: Pratylenchus coffeae; conditions: 1 μM foliar application every 5 days, evaluation 35 days after, control 42
Method in brief: as §2

SMILES	Titers of the bacterium ([1]; 0.001 μM) [copies per reaction]	Titers of the bacterium ([1]; 0.01 μM) [copies per reaction]	Titers of the bacterium ([1]; 1 μM) [copies per reaction]	Titers of the bacterium ([1]; 5 μM) [copies per reaction]	Titers of the bacterium ([1]; 10 μM) [copies per reaction]	Pp-Nt: percentage of mortality [2] [%]	Rs-Nt: percentage of mortality [3] [%]	N-Nt: percentage of mortality [4] [%]	Rs-SI: percentage of mortality [5] [%]	As-SI: percentage of leaves with the disease symptoms [6] [%]	Bc-At: mean of the diameter of the lesion [7] [mm]	Bc-Nt: mean of the diameter of the lesion [8] [mm]	Bc-SI: mean of the diameter of the lesion [9] [mm]	Rs: number of nodules per plant [10]	Mi: number of nodules per plant [11]	Pc: number of nodules per plant [12]
Cc1nc(N2CCN(C)CC2)ncc1C(=O)N1CC2CC(O)C(O)CC2C1 (stereo not drawn) [IIIB, 2-{[4-methyl-2-(4-methylpiperazin-1-yl)pyrimidin-5-yl]carbonyl}-octahydro-1H-isoindole-5,6-diol]	123	0	0	23	8546	2	3	1	2	2	0.7	0.9	1.2	2	3	16
CN1c2cc(C(N)=O)ccc2OCC1CC(=O)NC(CO)CO (stereo not drawn) [VJ, 3-{[(1,3-dihydroxypropan-2-yl)carbamoyl]methyl}-4-methyl-3,4-dihydro-2H-1,4-benzoxazine-6-carboxamide]	456	0	0	56	1351	0	0	1	2	8	1.2	0.3	0.8	0	0	14
CC(O)C(O)CN1CCC(Oc2ccc(C(=O)N3CCC(n4cccc4)C3)cc2)CC1 (stereo not drawn) [IVL, 1-[4-(4-{[3-(1H-pyrrol-1-yl)pyrrolidin-1-yl]carbonyl}phenoxy)piperidin-1-yl]butane-2,3-diol]	635	1	7	65	9853	2	3	1	2	2	1.5	1.5	2.5	2	3	12
Cc1nc(N2CCN(c3ccccc3)CC2)ncc1C(=O)N1CC2CC(O)C(O)CC2C1 (stereo not drawn) [IIID, 2-{[4-methyl-2-(4-phenylpiperazin-1-yl)pyrimidin-5-yl]carbonyl}-octahydro-1H-isoindole-5,6-diol]	985	1	0	98	9653	0	0	1	2	8	1.1	2.0	1.6	0	0	18
O=C(CCc1cc2cc3c(-c4ccc5ccccc5c4)coc3cc2oc1=O)NCC(O)CO (stereo not drawn) [IE, N-(2,3-dihydroxypropyl)-3-[6-(naphthalen-2-yl)-2-oxo-2H-furo[3,2-g]chromen-3-yl]propanamide]	587	0	0	87	6574	0	0	0	0	7	2.4	1.5	0.8	0	0	0
O=C(CCc1cc2cc3ccoc3cc2oc1=O)NCC(O)CO (stereo not drawn) [IF, N-(2,3-dihydroxypropyl)-3-{2-oxo-2H-furo[3,2-g]chromen-3-yl}propanamide]	985	0	0	98	6325	0	0	0	1	5	0.7	0.9	1.2	0	0	0
O=C(Cc1cc2c(oc1=O)C=CC1C(n3cccc3)=COC21)NCC(O)CO (stereo not drawn) [IIG, N-(2,3-dihydroxypropyl)-2-[11-oxo-5-(1H-pyrrol-1-yl)-3,10-dioxatricyclo[7.4.0.0^{2,6}]trideca-1(9),4,7,12-tetraen-12-yl]acetamide]	658	0	3	68	4587	3	0	0	1	7	0.5	0.9	0.8	3	0	0
Cc1coc2cc3oc(=O)c(CCC(=O)NCC(O)CO)cc3cc12 (stereo not drawn) [IA, N-(2,3-dihydroxypropyl)-3-{6-methyl-2-oxo-2H-furo[3,2-g]chromen-3-yl}propanamide]	524	12	0	52	9652	1	2	1	3	1	1.2	0.3	0.8	12	23	18
O=C(c1ccc(OC2CCN(CC(O)CO)CC2)cc1)N1CCC(n2cccc2)C1 (stereo not drawn) [IVK, 3-[4-(4-{[3-(1H-pyrrol-1-yl)pyrrolidin-1-yl]carbonyl}phenoxy)piperidin-1-yl]propane-1,2-diol]	578	5	4	78	8542	1	2	1	3	1	0.5	0.9	0.8	14	2	14
